Source: patent US20070233400A1, “Method of calculating environmental risk of a chemical” (AMSTED Industries Incorporated, priority 2006, published 2007)

Tests used:
[1] = published sources; cited from earlier work
[2] = sand
Text: Mobility it defined as the ability of a chemical to migrate in the environment. Mobility of a chemical in the environment is governed by two factors that include the physical chemistry of the chemical and the physical and chemical characteristics of the geologic environment to which the chemical is released.
To obtain a value to represent the mobility of each compound, two variables are used: Henry's Law constant (H), which focuses on the physical chemistry of the chemical and the retardation factor (R), which focuses on the physical and chemical characteristics of the geological environment. The retardation factor was calculated by first calculating the distribution coefficient using Equation 1. Kd=(Foc)(Koc) where: Kd=distribution coefficient (mL·g^−1); Koc=organic carbon partition coefficient (1/mg); Foc=fraction of organic carbon in soil (mg/mg)
Values for the organic carbon partition coefficient can be obtained from location-specific testing of soil or from various published sources. And the fraction of organic carbon in soil can be obtained from location-specific testing of soil or from various published sources.
Once the distribution coefficient is calculated, the Retardation Factor can be calculated using Equation 2. [formula] where: R is the retardation factor; ρb=bulk density of aquifer matrix (g/cm^3); Kd=distribution coefficient (mL·g^−1); η=effective porosity Henry's Law constant (H) (atm.·mol^−1·m^−3) is a measure of the tendency for organic solutes to volatilize. It is related to vapor pressure (VP) (atm.), molecular weight (MW) (g/mol); and solubility in water (Ws) (g/L) according to Equation (3): H=(VP)/(MW)(Ws) With Henry's Law constant and the retardation factor in place, the mobility of a specific compound is expressed as Equation (4): M=(H)(R) where: M=mobility; H=Henry's Law constant; R=retardation factor

[3] = oral pathway; more conservative of carcinogenic or chronic value; published sources; cited from earlier work

c1ccccc1 [benzene]
Henry's Law constant (H) [1]: 0.228 atm.·mol^−1·m^−3 | mobility factor (M) ([2]; M=(H)(R)): 0.2576 | distribution coefficient (Kd) ([2]; Foc 0.0003 mg/mg, Kd=Foc×Koc): 0.0177 mL/g | retardation factor (R) ([2]; bulk density 1.8 g/cm^3, effective porosity 0.25): 1.13 | toxicity value (T) [3]: 0.04 mg/kg-day^−1
